{
  "source": "patent US7314959B2",
  "about": "“Amino thiol compounds and compositions for use in conjunction with cancer therapy” (Wisconsin Alumni Research Foundation, priority 2003, dated 2008)",
  "key": {"[1]": {"system": "A431 human epidermoid cells (xenograft in nude mice)", "assay": "Effect of topical drug on killing of tumor xenograft by external beam γ irradiation", "assay_type": "in vivo, mouse", "details": "topical dose 5-times higher than standard regimen, adjacent to xenograft; 6.2 Gy", "protocol": "Briefly, athymic nude mice (nu/nu, 6-7 weeks, Harlan Labs) were housed in cages containing autoclaved bedding and received autoclaved food and water. Cages were maintained in a sterile laminar flow hood. Mice received a single, sc injection of tumor cells (6.5×10^6, A431; 2.5×10^6, L1210) suspended in 200 ul of serum-free DMEM.\nAfter three days, mice were treated with topical drug in vehicle or vehicle alone. PrC-210 was formulated in a 50:30:20 vehicle (ethanol:PG (propylene glycol):water, adjusted to pH 6.5 with NaOH), and mice received four topical applications over two hours (at −2 hr, −1 hr, −30 min and −10 min, irradiation was at 0 min). 18-20 gm nude mice received topical treatments of 13 ul, 11 ul, 11 ul and 11 ul (total=46 ul) applied to a roughly 1 cm×1.5 cm area on the right flank, which was adjacent to the tumor xenograft. For these tumor xenograft experiments, a 5-fold increase in drug concentration over the minimum effective concentration previously shown to prevent radiodermatitis was tested.\nWith the last topical drug application, at −10 min, the mice also received an ip injection of Nembutal (65 ug/gm b.w.). […]\nGrowth of the xenograft tumors was monitored by vernier caliper measurements every 1-2 days for the 18-21 days following irradiation. […]"}, "[2]": {"system": "B16 melanoma tumor xenografts", "assay": "Effect of topical drug on killing of tumor xenograft by systemic Cytoxan", "assay_type": "in vivo, mouse", "details": "topical dose 5-times higher than standard regimen; Cytoxan 200 ug/gm b.w. ip"}, "[3]": {"system": "hamster cheek pouch mucosa", "assay": "Radiation-induced mucositis, hamster cheek pouch model", "assay_type": "in vivo", "details": "50 mM or 500 mM topical for 30 min before 30 Gy (17.5 min) irradiation", "from_the_text": "The model for radiation-induced oral mucositis was developed for the purpose of screening and identifying effective polyamines and aminothiols useful for treatment. The model used in this example was derived from the oral mucositis model described by Alvarez et al. (Clin. Cancer Research 9:3454-3461, 2003). Male golden Syrian hamsters (70-95 gram, Charles River Laboratories, Wilmington, Mass.) were used. Animals were individually numbered, housed in small groups and fed and watered ad libitum. Hamsters were anesthetized with sodium pentobarbital (80 mg/kg body weight, Sigma, St. Louis, Mo.). The left buccal cheek pouch was everted and secured. A protective lead shield covered the remainder of the animal. Subsequently, the cheek pouch was irradiated with a single dose of radiation from 20 to 40 Gy delivered to the targeted mucosa in the ^137Cs irradiator. Starting 10 to 12 days after radiation, the severity of mucositis was assessed every two days. The severity level of mucositis was evaluated using a modified mucositis scoring system described by Sonis S. T. et al. (Oral Oncology 36:373-381, 2000)\nThe scoring system was as follows: • 0=Pouch completely healthy. No erythema or vasodilatation. • 1=Erythema. • 2=Severe erythema, vasodilatation • 3=Severe erythema/vasodilatation. Superficial erosion on radiated pouch surface area. • 4=Formation of ulcers in one or more places. […]"}},
  "data": [
    {"smiles": "CNCC(CS)CNC", "note": "[PrC-210, 3-methylamino-2-methylaminomethyl-propane-1-thiol]", "values": [
      {"measurement": "effect upon killing of tumor cells by external beam γ irradiation", "setting": "[1]", "result": "no discernible effect"},
      {"measurement": "effect upon killing of tumor xenografts by systemic Cytoxan chemotherapy", "setting": "[2]", "result": "no discernible effect"},
      {"measurement": "effect on radiation-induced erythema, swelling and inflexibility of cheek pouch", "setting": "[3]", "result": "significant decrease in the erythema, swelling and inflexibility"}
    ]}
  ]
}
